In patent US6900194B1, “Use of substituted 4-biarylbutyric and 5-biarylpentanoic acid derivatives as matrix metalloprotease inhibitors for the treatment of respiratory diseases” (Bayer Aktiengesellschaft, priority 1998, dated 2005):

Columns and labels:
Assay type in all cases: biochemical
MMP-9 (Gelatinase B) = target: T1, MMP-9 (Gelatinase B) (Homo sapiens, UniProt P14780); assay: P218 quenched fluorescence assay, MMP-9; settings: read-out: Potency Ki vs. MMP-9
T1 construct: polymorphonuclear leukocytes (PMN) preparations are isolated as described above from 3 or more units of freshly drawn whole blood; from tissue; host or cells: polymorphonuclear leukocytes from whole blood, stimulated with PMA; supernatant purified
T1 sequence (P14780 94-707): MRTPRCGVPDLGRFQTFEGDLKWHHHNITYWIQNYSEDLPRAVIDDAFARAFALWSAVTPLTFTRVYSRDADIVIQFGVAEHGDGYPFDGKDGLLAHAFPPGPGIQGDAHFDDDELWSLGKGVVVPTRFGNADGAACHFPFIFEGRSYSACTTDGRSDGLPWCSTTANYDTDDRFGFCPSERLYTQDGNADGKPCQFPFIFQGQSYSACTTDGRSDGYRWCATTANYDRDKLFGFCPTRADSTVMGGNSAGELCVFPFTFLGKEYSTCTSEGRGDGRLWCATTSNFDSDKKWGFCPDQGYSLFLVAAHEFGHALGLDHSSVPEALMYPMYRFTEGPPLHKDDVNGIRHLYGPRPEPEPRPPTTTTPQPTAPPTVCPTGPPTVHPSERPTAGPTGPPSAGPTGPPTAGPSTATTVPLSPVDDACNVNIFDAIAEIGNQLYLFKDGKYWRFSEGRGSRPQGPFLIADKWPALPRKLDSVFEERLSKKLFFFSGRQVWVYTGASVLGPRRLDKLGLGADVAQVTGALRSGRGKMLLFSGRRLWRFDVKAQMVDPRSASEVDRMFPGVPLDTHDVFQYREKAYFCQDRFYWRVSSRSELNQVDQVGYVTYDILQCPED
Excerpt: (§1) P218 Quenched Fluorescence Assay for MMP Inhibition:
(§2) This assay is adapted from the one described by Knight et al., FEBS Letters, 296, 263-266 (1992) for MMP-3 and a related substrate. The rate of hydrolysis of the synthetic substrate H-MCA-Pro-Lys-Pro-Leu-Ala-Leu-DPA-Ala-Arg-NH2 (P218) by the respective MMPs is monitored fluorometrically, using an excitation wavelength of 340 nm and an emission wavelength of 395 nm, in the presence or absence of the test compounds. The substrate is made up initially in 100% DMSO to a concentration of 1×10^−2 M, then diluted in assay buffer to a final concentration of 20 μM. […] The total assay volume in a 96 well microtitre plate is 150 μl, Cleavage of the substrate between the Leu-Ala residues allows the fluorescence of the MCA group to be detected on a fluorometer (Cytofluor II) following excitation at 340 nm and emission at 395 nm. Change in fluorescence is continually monitored for a 40 min period.
(§3) The Ki's are calculated using the method described by Williams and Morrison, Methods in Enzymology, 63, 437-467 (1979) to measure Ki apparent for tight binding inhibitors, and is summarised as follows: [I]0/(1−vi/v0)=Ki apparent ×vi/v0+[E]0 [I]0 and [E]0 are inhibitor and enzyme concentrations, and vi/v0 are reaction velocities with/without inhibitor. […]
(§4) IC50's are determined at each enzyme concentration using Xlfit software. […]

MMP-3 (Stromelysin) = target: T2, MMP-3 (Stromelysin) (Homo sapiens, UniProt P08254); assay: P218 quenched fluorescence assay, MMP-3
T2 construct: Truncated Pro-stromelysin-257 is expressed in a soluble form in E. coli as described by Marcy et al; made in house; host or cells: E. coli
T2 sequence (P08254 100-274): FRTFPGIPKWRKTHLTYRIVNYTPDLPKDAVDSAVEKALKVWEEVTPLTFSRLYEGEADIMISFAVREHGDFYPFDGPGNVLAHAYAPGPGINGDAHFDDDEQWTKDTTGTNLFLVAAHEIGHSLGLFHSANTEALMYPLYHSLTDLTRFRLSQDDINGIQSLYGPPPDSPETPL
Excerpt: as §1, §2, §3, §4

[1] = target: T3, MMP-8 (Neutrophil Collagenase) (Homo sapiens, UniProt P22894); assay: P218 quenched fluorescence assay, MMP-8
T3 construct: Active recombinant truncated form (met^80-gly^242) was obtained according to the protocol of Knauper; made in house
T3 sequence (P22894 100-262): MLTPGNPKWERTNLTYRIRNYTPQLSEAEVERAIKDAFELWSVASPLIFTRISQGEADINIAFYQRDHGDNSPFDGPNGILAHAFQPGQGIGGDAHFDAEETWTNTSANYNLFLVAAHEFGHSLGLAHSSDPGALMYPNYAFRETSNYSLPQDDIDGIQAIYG
Excerpt: as §1, §2, §3, §4

In the case of CCOc1ccc(-c2ccc(C(=O)CC(CCN3C(=O)c4ccccc4C3=O)C(=O)O)cc2)cc1 (single isomer, unassigned; (+)) [Example 2, (+)-2-[2-(1,3-Dioxo-1,3-dihydro-2H-isoindol-2-yl)ethyl]-4-(4′-ethoxy[1,1′-biphenyl]-4-yl)-4-oxobutanoic acid], the Ki (MMP-9 (Gelatinase B)) is reported as 1.2 nM, the IC50 (MMP-3 (Stromelysin); read-out: IC50 vs. MMP-3 (value marked *)) is reported as 60 nM and the IC50 ([1]; read-out: IC50 vs. MMP-8 (value marked *)) is reported as 21.6 nM.
Molecule O=C(CC(CCN1C(=O)c2ccccc2C1=O)C(=O)O)c1ccc(-c2ccc(Cl)cc2)cc1 (single isomer, unassigned; (+)) [Example 4, (+)-4-(4′-Chloro[1,1′-biphenyl]4-yl)-2-[2-(1,3-dioxo-1,3-dihydro-2H-isoindol-2-yl)ethyl]-4-oxobutanoic acid] has a Ki (MMP-9 (Gelatinase B)) of 0.7 nM, a Ki (MMP-3 (Stromelysin); read-out: Potency Ki vs. MMP-3) of 3.7 nM and a Ki ([1]; read-out: Potency Ki vs. MMP-8) of 7.5 nM.
